In PubChem BioAssay AID1963853 (Molecular Pharmacology Branch, DTP, NCI, 2024):
pIC50: −log10 of the molar value. Several values for one entry are separate records, joined by “and”; a condition that tells them apart may be missing. Equal values may be shown once.

Tested on: 266295-075-R-J1-PDC spheroid viability
Experiment: Anticancer human tumor 266295-075-R-J1-PDC patient-derived head and neck squamous carcinoma cell line growth inhibition [POLQ]
Conditions: spheroids with HUVEC and MSC; for viability, T/C: stronger effect = lower value
Experimental: Multicellular complex tumor spheroid response to Polymerase (POL) inhibitors (novobiocin, ART-558, RP6685) in combination with a variety of drugs and investigational agents in selected tumor cell lines
The POL inhibitors (novobiocin, ART-558, and RP6685) were evaluated both individually and in combination with standard of care and investigational anticancer small molecules within a complex spheroid model of solid tumors. . Complex spheroids include a stromal component modeled by human endothelial cells (HUVEC) and fibroblasts modeled by human mesenchymal stem cells (MSCs). The concentration ranges selected for each drug and investigational agent were based upon clinically achievable concentrations if the clinical Cmax of the agent was known.
Compounds. The drugs and investigational agents: novobiocin (NSC847541), ART-558 (NSC835418), RP-6685 (NSC848927), peposertib (NSC802822), ceralasertib (NSC780249), elimusertib (NSC800525), camonsertib (NSC841442), AZD-1390 (NSC803789), olaparib (NSC753686), talazoparib (NSC767125), rucaparib (NSC756644), sotorasib (NSC818433), MRTX-1133 (NSC836407), SN-38 (NSC673596), topotecan (NSC609699), epotoside (NSC141540), doxorubicin (NSC123127), gemcitabine (NSC613327), 5-fluorouracil (NSC19893), paclitaxel (NSC125973), vemurafenib (NSC761431), MSA-2 (NSC828583), SN-011 (NSC837082), adavosertib (NSC754352), prexasertib (NSC758257), carboplatin (NSC241240) and oxaliplatin (NSC266046), were obtained from the National Cancer Institute (NCI) Developmental Therapeutics Program Chemical Repository (21). The FDA-approved anticancer drug set is available from the Developmental Therapeutics Program at https://dtp.cancer.gov/organization/dscb/obtaining/. […] The stock solutions were prepared in dimethyl sulfoxide (DMSO, Sigma-Aldrich, St. Louis, MO, cat. D2650), except for the platinum compounds which were prepared in saline (Quality Biological, Gaithersburg, MD, cat. 114-055-101), at 800-fold the tested concentration and stored at -70 degrees C prior to their use. All drugs and investigational agents were tested over a range starting from a high concentration at or near the clinical Cmax and decreasing in half-log increments. If the clinical Cmax for an agent had not been determined, the highest concentration tested was 10 microM, except for SN-38, which was tested at a high concentration of 1 microM.
Cell Culture. All cells were maintained in an incubator at 37 degrees C and 5% CO2 with 95% humidity. The PDC lines were cultured according to standard operating procedures established by the NCI PDMR (https://pdmr.cancer.gov). Table 3 of the manuscript, lists the cell lines along with the number of the three cell types plated to form the mct-spheroids and media for tumor cell growth. After thawing, all PDC lines, except 997537-175-T-J1-PDC and 415267-285-R-J2-PDC, were cultured in Matrigel-coated flasks prepared with a working solution of 1X Ham's F-12 nutrient mix, without supplementation (Thermo Fisher Scientific, cat. 11765054), 100 U/mL penicillin-streptomycin (Thermo Fisher Scientific, cat. 15140122), and 2.5% Matrigel (Corning Inc., Corning, NY, cat. 354248) for the first three passages. The two PDC lines 997537-175-T-J1-PDC and 415267-285-R-J2-PDC were cultured on uncoated flasks. The 857933-349-R-J2-PDC line was cultured in 6C/Colon 1B media containing advanced DMEM/F-12 (Thermo Fisher Scientific, cat. 12634028), 10 mM HEPES (Thermo Fisher Scientific, cat. 15630080), 1X GlutaMAX supplement (Thermo Fisher Scientific, cat. 35050061), 0.1 mg/mL primocin (InvivoGen, San Diego, CA, cat. ant-pm-2), 10% defined fetal bovine serum, heat inactivated (HyClone Laboratories Inc., Logan, UT, cat. SH30070.03HI), 50% L-WRN conditioned media (ATCC, cat. CRL-3276), 1.25 mM N-Acetyl-L-cysteine (Sigma-Aldrich, cat. A9165), 10 mM nicotinamide (Sigma-Aldrich, cat. N0636), 1X B-27 supplement (Thermo Fisher Scientific, cat. 17504044), 1X N-2 supplement (Thermo Fisher Scientific, cat. […]
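Also: spheroids exposed to compounds for seven days before readout.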

O=C(c1cc(Cc2n[nH]c(=O)c3ccccc23)ccc1F)N1CCN(C(=O)C2CC2)CC1
viability, T/C (compound 0.0316 µM): 114% and 79.6% and 101% | viability, T/C (compound 0.1 µM): 84% and 87.8% and 94.3% | viability, T/C (compound 0.316 µM): 94.3% and 90.3% and 90.9% | viability, T/C (compound 1 µM): 91.9% and 99.1% and 99.3% | viability, T/C (compound 3.16 µM): 112% and 105% and 107% | viability, T/C (compound 10 µM): 85.3% and 86.9% and 82.6% | pIC50 (curve of compound): < 5.00

COC1C(OC(N)=O)C(O)C(Oc2ccc3c(O)c(NC(=O)c4ccc(O)c(CC=C(C)C)c4)c(=O)oc3c2C)OC1(C)C (configuration not stated)
viability, T/C (compound 0.0316 µM): 101% [middle of 13 runs] | viability, T/C (compound 1 µM): 101% [middle of 13 runs] | pIC50 (compound alone, run of 10/31/2023): < 5.00

CCCS(=O)(=O)Nc1ccc(F)c(C(=O)c2c[nH]c3ncc(-c4ccc(Cl)cc4)cc23)c1F
viability, T/C (compound 0.0316 µM): 123% and 120% and 97.3% | viability, T/C (compound 0.1 µM): 110% and 106% and 109% | viability, T/C (compound 0.316 µM): 105% and 98.9% and 110% | viability, T/C (compound 1 µM): 113% and 136% and 117% | viability, T/C (compound 3.16 µM): 121% (2×) and 136% | viability, T/C (compound 10 µM): 141% and 162% and 187% | pIC50 (curve of compound): < 5.00

C=CCn1c(=O)c2cnc(Nc3ccc(N4CCN(C)CC4)cc3)nc2n1-c1cccc(C(C)(C)O)n1
viability, T/C (compound 0.00316 µM): 98.5% and 82.4% and 90.4% | viability, T/C (compound 0.01 µM): 86.6% and 97.5% and 99.7% | viability, T/C (compound 0.0316 µM): 102% and 93.3% and 99.6% | viability, T/C (compound 0.1 µM): 127% and 114% and 84.3% | viability, T/C (compound 0.316 µM): 83% and 93.8% and 89.9% | viability, T/C (compound 1 µM): 70% and 70.6% and 63.8% | pIC50 (curve of compound): < 6.00

CNCc1ccc(-c2[nH]c3cc(F)cc4c3c2CCNC4=O)cc1
viability, T/C (compound 0.0316 µM): 105% and 77.3% and 89.9% | viability, T/C (compound 0.1 µM): 102% and 92.1% and 96.7% | viability, T/C (compound 0.316 µM): 107% and 102% and 87.6% | viability, T/C (compound 1 µM): 91.4% and 94% and 99.2% | viability, T/C (compound 3.16 µM): 110% and 105% and 106% | viability, T/C (compound 10 µM): 91.8% and 123% and 105% | pIC50 (curve of compound): < 5.00

CC1COCCN1c1cc(-c2ccnn2C)c2ccnc(-c3ccn[nH]3)c2n1 (configuration not stated)
viability, T/C (compound 0.0316 µM): 91% and 92.4% and 98.3% | viability, T/C (compound 0.1 µM): 70.7% and 81.1% and 80.7% | viability, T/C (compound 0.316 µM): 62.5% and 67.2% and 69.4% | viability, T/C (compound 1 µM): 45.2% and 52.3% and 59.2% | viability, T/C (compound 3.16 µM): 47.1% and 49% and 53.5% | viability, T/C (compound 10 µM): 36.6% and 36.9% and 32% | pIC50 (curve of compound): 6.02 and 5.73 and 5.61

Nc1ccc(C#CCN(C(=O)Cc2ncc(C(F)(F)F)cc2C(F)(F)F)c2ccc(F)cc2)nn1
viability, T/C (compound 0.316 µM): 102% [middle of 13 runs] | viability, T/C (compound 3.16 µM): 95.5% [middle of 13 runs] | viability, T/C (compound 10 µM): 96.3% [middle of 13 runs] | pIC50 (compound alone, run of 11/06/2023): < 5.00
